Measurements reported in patent US4503065A, “Antiinflammatory 4,5-diaryl 1-2-halo imidazoles” (E. I. Du Pont de Nemours and Company, priority 1982, dated 1985).
Like-named read-outs stand apart in the source and are kept apart here.

Test system: adjuvant-induced arthritis in rats
Assay: Established adjuvant-induced arthritis in rats (paw volume of uninjected left hind paw)
Type: in vivo, Charles River Lewis male rats
Settings: for ED50: read-out: Adjuvant Arthritis ED50 (effective dose at which a 50% decrease from control paw volume is observed); for Percent decrease from control paw volume: 7 days
[1] = at 50 mg/kg daily dose, rat, oral gavage
[2] = at 27 mg/kg daily dose, rat, oral gavage
[3] = rat, oral gavage, daily for 7 days, paw volume one day after last dose, ED50 by visual-fit regression

In the case of `CC(=O)Oc1ccccc1C(=O)O` [Aspirin, reference compound], the ED50 (Rattus norvegicus, po) was 305 mg/kg.

In the case of `Br.Fc1ccc(-c2nc(Br)[nH]c2-c2ccc(F)cc2)cc1` [Example 1, 2-Bromo-4,5-bis(4-fluorophenyl)-1H-imidazole, Hydrobromide], the “Percent decrease from control paw volume” value [1] was 33%.

`Br.COc1ccc(-c2nc(Br)[nH]c2-c2ccc(OC)cc2)cc1` [Example 2, 2-Bromo-4,5-bis(4-methoxyphenyl)-1H-imidazole, Hydrobromide] was tested, and the “Percent decrease from control paw volume” value [2] was 46%.

Compound `Br.Clc1ccc(-c2nc(Br)[nH]c2-c2ccc(Cl)cc2)cc1` [Example 3, 2-Bromo-4,5-bis(4-chlorophenyl)-1H-imidazole, Hydrobromide] has an ED50 [3] of 5.2 mg/kg.

`Br.CSc1ccc(-c2nc(Br)[nH]c2-c2ccc(SC)cc2)cc1` [Example 4, 2-Bromo-4,5-bis(4-methylthiophenyl)-1H-imidazole, Hydrobromide] was tested, and the “Percent decrease from control paw volume” value [2] was 26%.

`COc1ccc(-c2nc(Cl)[nH]c2-c2ccc(OC)cc2)cc1.Cl` [Example 5, 2-Chloro-4,5-bis(4-methoxyphenyl)-1H-imidazole, Hydrochloride] was tested, and the “Percent decrease from control paw volume” value [2] was 17%.

In the case of `COc1ccc(-c2nc(Cl)n(C)c2-c2ccc(OC)cc2)cc1` [Example 6, 2-Chloro-4,5-bis(4-methoxyphenyl)-1-methyl-1H-imidazole], the “Percent decrease from control paw volume” value [2] was 35%.

For `CCOC(C)n1c(Cl)nc(-c2ccc(OC)cc2)c1-c1ccc(OC)cc1` (centres unmarked) [Example 7, 2-Chloro-1-(1-ethoxyethyl)-4,5-bis(4-methoxyphenyl)-1H-imidazole], the “Percent decrease from control paw volume” value [1] was 37%.

In the case of `CC(C)Cc1ccc(C(C)C(=O)O)cc1` (centres unmarked) [Ibuprofen, reference compound], the ED50 [3] was 100 mg/kg.

With `COc1ccc2c(c1)c(CC(=O)O)c(C)n2C(=O)c1ccc(Cl)cc1` [Indomethacin, reference compound] the ED50 (Rattus norvegicus, po) was 0.3 mg/kg.

With `CCCCC1C(=O)N(c2ccccc2)N(c2ccccc2)C1=O` [Phenylbutazone, reference compound] the ED50 [3] was 10 mg/kg.
